Results on six compounds are retold here after patent US9394281B2, “Substituted heteroaryl compounds and methods of use” (Calitor Sciences, LLC, priority 2014, dated 2016).

Molecules are shown by their SMILES.

Data set [1] can be described thus: Compound stability in human liver microsomes. Format: in vitro ADME. The settings on record: for half-life at 5 μM / CLint scaled at 5 μM: pH 7.4; for half-life at 5 μM: read-out: Human T1/2; for CLint scaled at 5 μM: human liver microsomes, in vivo CLint extrapolated. The method, then: (§1) Human or rat liver microsomes incubations were conducted in duplicate in polypropylene tubes. The typical incubation mixtures consisted of human or rat liver microsomes (0.5 mg protein/mL), compounds of interest (5 μM) and NADPH (1.0 mM) in a total volume of 200 μL potassium phosphate buffer (PBS, 100 mM, pH 7.4). Compounds were dissolved in DMSO and diluted with PBS such that the final concentration of DMSO was 0.05%. The enzymatic reactions were commenced with the addition of […] after a 3-min preincubation and incubated in a water bath open to the air at 37° C. Reactions were terminated at various time points (0, 5, 10, 15, 30, 60 min) by adding equal volume of ice-cold acetonitrile. The samples were stored at […] until LC/MS/MS assays.
(§2) The concentrations of compounds in the incubation mixtures of human or rat liver microsomes were determined by a LC/MS/MS method. The ranges of the linearity in the concentration range were determined for each tested compounds.
(§3) A parallel incubation was performed using denatured microsomes as the negative control, and reactions were terminated at various time points (0, 15, 60 min) after incubation at 37° C.
(§4) Dextromethorphan (70 μM) was selected as the positive control, and reactions were terminated at various time points (0, 5, 10, 15, 30, 60 min) after incubation at 37° C. Both positive and negative control samples were included in each assay to ensure the integrity of the microsomal incubation system.
(§5) The concentrations of compounds in human or rat liver microsome incubations were plotted as a percentage of the relevant zero time point control for each reaction. The in vivo CLint were extrapolated (ref.: Naritomi, Y.; Terashita, S.; Kimura, S.; Suzuki, A.; Kagayama, A.; and Sugiyama, Y.; Prediction of human hepatic clearance from in vivo animal experiments and in vitro metabolic studies with liver microsomes from animals and humans. Drug Metab. Dispos., 2001, 29: 1316-1324).

Data set [2] can be described thus: Compound stability in rat liver microsomes. It is filed as in vitro ADME. The settings on record: pH 7.4; for half-life at 5 μM: rat liver microsomes 0.5 mg protein/mL, compound 5 μM, NADPH 1.0 mM, 37° C., read-out: Rat T1/2; for CLint scaled at 5 μM: rat liver microsomes, in vivo CLint extrapolated. The method, then: as §1, §2, §3, §4, §5
A short description of data set [3]: Pharmacokinetics after intravenous and oral administration in rats. Format: in vivo, rat. Conditions: iv dosing, 1 mg/kg; for AUC(0-t) / half-life / Vd: rat, plasma; for Vd: read-out: Vss. The method, then:
The compounds disclosed herein are assessed in pharmacokinetic studies in mice, rats, dogs or monkeys. The compounds are administered as a water solution, 2% HPMC+1% TWEEN®80 in water solution, 5% DMSO+5% solutol in saline, 4% MC suspension or capsule. For the intravenous administration, the animals are generally given at 1 or 2 mg/kg dose. For the oral (p.o.) dosing, mice and rats are generally given 5 or 10 mg/kg dose, and dogs and monkeys are generally given 10 mg/kg dose. The blood samples (0.3 mL) are drawn at 0.25, 0.5, 1.0, 2.0, 3.0, 4.0, 6.0, 8.0, 12 and 24 h time points or 0.083, 0.25, 0.5, 1.0, 2.0, 4.0, 6.0, 8.0 and 24 h time points and centrifuged at 3,000 or 4000 rpm for 2 to 10 min. The plasma solutions are collected, and stored at −20° C. or −70° C. until analyzed by LC/MS/MS as described above.

A further data set has as its target JAK1 (h) (Homo sapiens (Human), UniProt P23458). The experiment in a line: JAK1 (h) kinase assay. It is filed as biochemical. The procedure: (§6) Kinase assays can be performed by measurement of incorporation of γ-^33P ATP into immobilized myelin basic protein (MBP). High binding white 384 well plates (Greiner) are coated with MBP (Sigma #M-1891) by incubation of 60 μL/well of 20 μg/mL MBP in Tris-buffered saline (TBS; 50 mM Tris pH 8.0, 138 mM NaCl, 2.7 mM KCl) for 24 h at 4° C. Plates are washed 3× with 100 μL TBS. Kinase reactions are carried out in a total volume of 34 μL in kinase buffer (5 mM Hepes pH 7.6, 15 mM NaCl, 0.01% bovine gamma globulin (Sigma #I-5506), 10 mM MgCl2, 1 mM DTT, 0.02% TritonX-100). Compound dilutions are performed in DMSO and added to assay wells to a final DMSO concentration of 1%. Each data point is measured in duplicate, and at least two duplicate assays are performed for each individual compound determination. Enzyme is added to final concentrations of 10 nM or 20 nM, for example. A mixture of unlabeled ATP and γ-^33P ATP is added to start the reaction (2×10^6 cpm of γ-^33P ATP per well (3000 Ci/mmole) and 10 μM unlabeled ATP, typically. The reactions are carried out for 1 h at room temperature with shaking Plates are washed 7× with TBS, followed by the addition of 50 μL/well scintillation fluid (Wallac). Plates are read using a Wallac Trilux counter. This is only one format of such assays; various other formats are possible, as known to one skilled in the art.
The above assay procedure can be used to determine the IC50 for inhibition and/or the inhibition constant, Ki. The IC50 is defined as the concentration of compound required to reduce the enzyme activity by 50% under the condition of the assay. The IC50 value is estimated by preparing a 10 point curve using a ½ log dilution series (for example, a typical curve may be prepared using the following compound concentrations: 3 μM, 1 μM, 0.3 μM, 0.1 μM, 0.03 μM, 0.01 μM, 0.003 μM, 0.001 μM, 0.0003 μM, and 0 μM).
(§7) The kinase assays described herein were performed at Millipore UK Ltd, Dundee Technology Park, Dundee DD2 1SW, UK.

A further data set concerns the target Aurora-B (h) (Homo sapiens (Human), UniProt Q96GD4). The experiment in a line: Aurora-B (h) kinase assay. It is filed as biochemical. The procedure: as §6, with “art. […]” for “art.”
The target in the next data set is FLT3 (h) (Homo sapiens (Human), UniProt P36888). The experiment in a line: FLT3 (h) kinase assay. It is filed as biochemical. The method, then: as §6, with “art. […]” for “art.”
The next data set deals with Aurora-A (h) (Homo sapiens (Human), UniProt O14965). Briefly: Aurora-A (h) kinase assay. Format: biochemical. The procedure: Kinase assays can be performed by measurement of incorporation of γ-^33P ATP into immobilized myelin basic protein (MBP). […] Plates are washed 3× with 100 μL TBS. Kinase reactions are carried out in a total volume of 34 μL in kinase buffer (5 mM Hepes pH 7.6, 15 mM NaCl, 0.01% bovine gamma globulin (Sigma #I-5506), 10 mM MgCl2, 1 mM DTT, 0.02% TritonX-100). Compound dilutions are performed in DMSO and added to assay wells to a final DMSO concentration of 1%. Each data point is measured in duplicate, and at least two duplicate assays are performed for each individual compound determination. Enzyme is added to final concentrations of 10 nM or 20 nM, for example.
The above assay procedure can be used to determine the IC50 for inhibition and/or the inhibition constant, Ki. The IC50 is defined as the concentration of compound required to reduce the enzyme activity by 50% under the condition of the assay.
as §7

A further data set addresses JAK2 (h) (Homo sapiens (Human), UniProt O60674). The experiment in a line: JAK2 (h) kinase assay. Format: biochemical. The procedure: as §6, with “art. […]” for “art.”
[4] abbreviates: human liver microsomes 0.5 mg protein/mL, compound 5 μM, NADPH 1.0 mM, 37° C.

JAK1 (h), sequence (P23458 whole entry): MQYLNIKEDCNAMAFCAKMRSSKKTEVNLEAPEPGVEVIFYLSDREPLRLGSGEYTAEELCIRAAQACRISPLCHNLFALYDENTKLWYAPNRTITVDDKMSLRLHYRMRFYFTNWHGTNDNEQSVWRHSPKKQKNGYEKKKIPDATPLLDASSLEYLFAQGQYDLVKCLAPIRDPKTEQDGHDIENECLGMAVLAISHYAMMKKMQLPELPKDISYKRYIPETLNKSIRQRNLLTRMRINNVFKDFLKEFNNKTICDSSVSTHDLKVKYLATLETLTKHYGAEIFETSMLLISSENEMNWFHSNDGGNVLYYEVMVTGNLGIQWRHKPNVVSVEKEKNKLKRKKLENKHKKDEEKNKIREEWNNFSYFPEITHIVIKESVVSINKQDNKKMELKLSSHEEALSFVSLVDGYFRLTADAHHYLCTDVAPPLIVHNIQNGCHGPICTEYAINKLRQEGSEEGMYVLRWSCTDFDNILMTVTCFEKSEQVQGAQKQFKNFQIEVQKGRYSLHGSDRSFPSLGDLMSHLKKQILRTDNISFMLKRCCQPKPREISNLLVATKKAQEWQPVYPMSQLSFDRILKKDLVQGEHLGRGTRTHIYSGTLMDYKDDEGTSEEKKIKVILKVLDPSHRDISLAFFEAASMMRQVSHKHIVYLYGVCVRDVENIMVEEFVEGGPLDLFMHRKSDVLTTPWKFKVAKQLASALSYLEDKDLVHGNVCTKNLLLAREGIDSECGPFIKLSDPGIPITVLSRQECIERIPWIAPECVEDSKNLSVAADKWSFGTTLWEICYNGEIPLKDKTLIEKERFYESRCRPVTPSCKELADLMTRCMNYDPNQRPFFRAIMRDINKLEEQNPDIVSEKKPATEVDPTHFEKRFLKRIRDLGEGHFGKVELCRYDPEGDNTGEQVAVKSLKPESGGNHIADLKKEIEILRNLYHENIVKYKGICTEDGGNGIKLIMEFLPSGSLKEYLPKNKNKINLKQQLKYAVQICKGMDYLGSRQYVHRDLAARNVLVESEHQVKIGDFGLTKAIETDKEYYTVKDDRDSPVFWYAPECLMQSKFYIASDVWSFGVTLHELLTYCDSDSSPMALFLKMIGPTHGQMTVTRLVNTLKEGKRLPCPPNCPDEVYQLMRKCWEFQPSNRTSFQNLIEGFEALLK
Aurora-B (h), sequence (Q96GD4 whole entry): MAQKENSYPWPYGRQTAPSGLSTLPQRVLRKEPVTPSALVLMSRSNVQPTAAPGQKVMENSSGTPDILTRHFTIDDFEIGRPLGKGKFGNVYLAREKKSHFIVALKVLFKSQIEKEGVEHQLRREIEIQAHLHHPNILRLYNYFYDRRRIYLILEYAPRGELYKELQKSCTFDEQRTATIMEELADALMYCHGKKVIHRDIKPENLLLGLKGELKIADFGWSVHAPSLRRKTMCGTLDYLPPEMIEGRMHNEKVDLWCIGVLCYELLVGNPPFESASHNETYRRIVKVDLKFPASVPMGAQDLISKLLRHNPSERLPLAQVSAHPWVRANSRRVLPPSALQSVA
FLT3 (h), sequence (P36888 27-993): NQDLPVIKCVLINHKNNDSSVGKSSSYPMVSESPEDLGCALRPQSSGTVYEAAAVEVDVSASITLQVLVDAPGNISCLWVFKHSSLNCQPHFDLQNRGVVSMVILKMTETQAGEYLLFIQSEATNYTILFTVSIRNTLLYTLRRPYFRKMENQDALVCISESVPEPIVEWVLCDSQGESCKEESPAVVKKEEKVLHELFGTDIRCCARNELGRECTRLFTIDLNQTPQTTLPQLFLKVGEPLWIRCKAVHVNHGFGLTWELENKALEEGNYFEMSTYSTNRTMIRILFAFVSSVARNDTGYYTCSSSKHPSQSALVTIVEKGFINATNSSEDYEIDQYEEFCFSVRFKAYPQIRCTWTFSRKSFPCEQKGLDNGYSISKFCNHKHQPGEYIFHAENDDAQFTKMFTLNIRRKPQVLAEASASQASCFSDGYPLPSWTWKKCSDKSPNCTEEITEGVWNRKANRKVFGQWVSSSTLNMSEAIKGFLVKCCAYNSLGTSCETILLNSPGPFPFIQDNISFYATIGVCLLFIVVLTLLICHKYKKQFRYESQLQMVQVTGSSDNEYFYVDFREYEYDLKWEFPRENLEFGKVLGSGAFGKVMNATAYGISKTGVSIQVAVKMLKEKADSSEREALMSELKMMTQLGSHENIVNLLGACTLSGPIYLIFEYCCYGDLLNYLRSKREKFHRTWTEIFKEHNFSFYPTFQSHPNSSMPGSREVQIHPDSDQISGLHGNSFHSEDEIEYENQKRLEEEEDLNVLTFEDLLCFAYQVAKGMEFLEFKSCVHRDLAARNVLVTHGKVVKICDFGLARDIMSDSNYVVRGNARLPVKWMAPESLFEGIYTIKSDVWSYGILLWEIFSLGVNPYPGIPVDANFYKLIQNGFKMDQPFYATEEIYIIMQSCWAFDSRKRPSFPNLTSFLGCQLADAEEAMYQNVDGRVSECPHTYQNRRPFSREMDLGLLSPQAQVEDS
Aurora-A (h), sequence (O14965 whole entry): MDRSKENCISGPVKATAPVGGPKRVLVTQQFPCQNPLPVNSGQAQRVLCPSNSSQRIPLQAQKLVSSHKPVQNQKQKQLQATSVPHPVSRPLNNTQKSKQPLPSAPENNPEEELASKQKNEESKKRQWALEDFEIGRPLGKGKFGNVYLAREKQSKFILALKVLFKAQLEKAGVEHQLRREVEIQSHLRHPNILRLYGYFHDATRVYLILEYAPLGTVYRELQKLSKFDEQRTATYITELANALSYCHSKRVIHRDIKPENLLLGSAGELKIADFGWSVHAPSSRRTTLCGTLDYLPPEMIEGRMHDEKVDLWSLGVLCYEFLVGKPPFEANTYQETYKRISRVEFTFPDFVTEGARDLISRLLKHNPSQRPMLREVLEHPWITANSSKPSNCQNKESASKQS
JAK2 (h), sequence (O60674 whole entry): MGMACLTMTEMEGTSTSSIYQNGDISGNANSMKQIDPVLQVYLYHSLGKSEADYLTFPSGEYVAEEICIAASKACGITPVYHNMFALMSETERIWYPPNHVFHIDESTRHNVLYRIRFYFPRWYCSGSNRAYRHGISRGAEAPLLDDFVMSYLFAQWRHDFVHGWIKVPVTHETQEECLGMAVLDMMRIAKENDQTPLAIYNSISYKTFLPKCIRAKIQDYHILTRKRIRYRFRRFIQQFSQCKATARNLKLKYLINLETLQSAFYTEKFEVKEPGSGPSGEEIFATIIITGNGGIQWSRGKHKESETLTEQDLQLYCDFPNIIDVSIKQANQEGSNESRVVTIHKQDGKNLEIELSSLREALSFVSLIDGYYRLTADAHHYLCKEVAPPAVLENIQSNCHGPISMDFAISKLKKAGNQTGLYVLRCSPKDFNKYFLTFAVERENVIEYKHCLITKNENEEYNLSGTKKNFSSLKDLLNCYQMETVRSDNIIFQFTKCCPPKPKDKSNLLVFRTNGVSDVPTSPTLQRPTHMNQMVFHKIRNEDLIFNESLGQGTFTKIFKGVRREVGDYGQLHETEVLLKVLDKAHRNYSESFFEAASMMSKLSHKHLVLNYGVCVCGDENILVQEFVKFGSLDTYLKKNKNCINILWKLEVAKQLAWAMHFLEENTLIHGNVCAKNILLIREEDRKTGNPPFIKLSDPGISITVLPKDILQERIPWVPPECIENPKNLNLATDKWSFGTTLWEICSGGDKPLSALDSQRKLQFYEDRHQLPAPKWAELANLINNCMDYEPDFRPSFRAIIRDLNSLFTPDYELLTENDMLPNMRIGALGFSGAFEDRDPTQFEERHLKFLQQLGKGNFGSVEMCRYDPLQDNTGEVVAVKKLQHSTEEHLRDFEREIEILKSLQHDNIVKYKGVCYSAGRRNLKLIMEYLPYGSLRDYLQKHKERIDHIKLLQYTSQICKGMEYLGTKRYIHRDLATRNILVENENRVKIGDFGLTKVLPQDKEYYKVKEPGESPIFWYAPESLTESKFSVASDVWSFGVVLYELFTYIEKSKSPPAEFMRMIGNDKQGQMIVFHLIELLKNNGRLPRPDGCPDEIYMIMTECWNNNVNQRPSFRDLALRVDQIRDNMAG

For the compound `Cn1cc(Nc2ncc(Cl)c(NC3COC4C(OCCO)COC34)n2)cn1` (stereo not drawn) [Ex. 5, 2-((6-((5-chloro-2-((l-methyl-1H-pyrazol-4-yl)amino)pyrimidin-4-yl)amino)hexahydrofuro[3,2-b]furan-3-yl)oxy)ethanol], the “Human T1/2” value in data set [1] (setting [4]) is “∞”. Moreover, in data set [2], the half-life at 5 μM was 12.1 h and the CLint scaled (usually the rate of metabolic loss divided by the concentration) at 5 μM was 3.42 mL/min/kg. In data set [3], the Cl/F was found to be 25 mL/min/kg; the AUC(0-t) (as a rule, the area under the concentration-time curve up to a stated or last time point) was found to be 621 ng·h/mL; the half-life is 2.93 h; the Vd amounted to 3.02 L/kg. For the same compound, on JAK1 (h), half-maximal inhibition (IC50) required 61 nM. For the same compound, the midpoint of inhibition against Aurora-B (h), the IC50, lay at 50 nM. Besides, at FLT3 (h), the IC50 – broadly, the concentration needed to halve the response being measured – came to 57 nM.
Take `COC1COC2C(Nc3nc(Nc4cnn(C)c4)ncc3Cl)COC12` (stereo not drawn) [Ex. 6, 5-chloro-N^4-(6-methoxyhexahydrofuro[3,2-b]furan-3-yl)-N^2-(1-methyl-1H-pyrazol-4-yl)pyrimidine-2,4-diamine]: the half-life at 5 μM in data set [1] (setting [4]) came to 1.52 h. In data set [1], the CLint scaled at 5 μM is 19 mL/min/kg. Besides, in data set [2], the half-life at 5 μM came to 1.48 h and the CLint scaled at 5 μM is 28 mL/min/kg. In data set [3], the Cl/F amounted to 20.8 mL/min/kg, the area under the curve AUC(0-t) came out at 822 ng·h/mL, the half-life was 0.83 h and the Vd was found to be 1.39 L/kg.
On to `Cn1cc(Nc2ncc(Cl)c(NC3COC4C(NS(C)(=O)=O)COC34)n2)cn1` (stereo not drawn) [Ex. 8, N-(6-((5-chloro-2-((1-methyl-1H-pyrazol-4-yl)amino)pyrimidin-4-yl)amino)hexahydrofuro[3,2-b]furan-3-yl)methanesulfonamide], for which the half-life at 5 μM was 6.28 h in data set [1] (setting [4]) and 1.64 h in data set [2]. In addition, the CLint scaled at 5 μM in data set [1] is 4.61 mL/min/kg; in data set [2] it was 25.2 mL/min/kg. The same compound showed a Cl/F in data set [3] of 63.7 mL/min/kg. In addition, the AUC(0-t) in data set [3] turned out to be 259 ng·h/mL. Moreover, the half-life in data set [3] was 0.34 h. The Vd in data set [3] was 1.39 L/kg. Further, the IC50 was 31 nM against JAK1 (h), 51 nM at Aurora-A (h), 31 nM at Aurora-B (h) and 11 nM on FLT3 (h).
`Cc1cnc(Nc2cnn(C)c2)nc1NC1COC2C(O)COC12` (stereo not drawn) [Ex. 3, 6-((5-methyl-2-((1-methyl-1H-pyrazol-4-yl)amino)pyrimidin-4-yl)amino) hexahydrofuro[3,2-b]furan-3-ol] showed a 50% inhibitory concentration (IC50) against JAK1 (h) of 78 nM.
With `CN(c1nc(Nc2cnn(C)c2)ncc1Cl)C1COC2C(O)COC21` (stereo not drawn) [Ex. 1, 6-((5-chloro-2-((l-methyl-1H-pyrazol-4-yl)amino)pyrimidin-4-yl)(methyl)amino)hexahydrofuro[3,2-b]furan-3-ol], in data set [1] (setting [4]), the half-life at 5 μM turned out to be 32.8 h. Further, the CLint scaled at 5 μM in data set [1] is 0.88 mL/min/kg. In addition, in data set [2], the half-life at 5 μM came out at 20.6 h and the CLint scaled at 5 μM was 2.01 mL/min/kg. In addition, in data set [3], the Cl/F worked out at 18.2 mL/min/kg, the AUC(0-t) is 929 ng·h/mL, the half-life is 1.2 h and the Vd was 1.22 L/kg. At JAK1 (h), this compound had an IC50 of 261 nM. This compound also gave an IC50 on JAK2 (h) of 689 nM.
On to `Cn1cc(Nc2ncc(Cl)c(NC3COC4C(N)COC34)n2)cn1` (stereo not drawn) [Ex. 7, N^4-(6-aminohexahydrofuro[3,2-b]furan-3-yl)-5-chloro-N^2-(1-methyl-1H-pyrazol-4-yl)pyrimidine-2,4-diamine], for which the IC50 against Aurora-A (h) is 99 nM.
